This note sets out measurements from patent US11298363B2, “Triazolobenzazepines as vasopressin V1a receptor antagonists” (RICHTER GEDEON NYRT., priority 2017, dated 2022).

In assay [1] the target is T1, human vasopressin V1a receptor (Homo sapiens, UniProt P37288). Kind of assay: Human vasopressin V1a receptor binding assay. Particulars: 1321N1 cell membranes, [3H]vasopressin; read-out: Ki (nM) on hV1a cell line. A digest of the protocol: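 Ki values come from IC50 via Cheng-Prusoff (KD from prior Scatchard), averaged over at least two independent runs. Human V1a membranes were incubated with radioligand 60 minutes at 27° C., bound ligand collected by filtration; (Arg^8)-vasopressin at 1.2×10^−6 M defined non-specific binding.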

Assay [2] has as its target T1, human vasopressin V1a receptor. In words: Functional assay on human vasopressin V1a receptor expressing cell line (intracellular Ca2+ fluorescence). The format is cell-based. Particulars: 1321N1 cells, (Arg8)-vasopressin at EC80; read-out: IC50 (nM) on hV1a cell line.
The target in assay [3] is mouse vasopressin V1a receptor (Mus musculus, UniProt Q62463). In words: Mouse vasopressin V1a receptor binding assay. Particulars: 1321N1 cell membranes; read-out: Ki (nM) on mV1a cell line. The text has this:
Mouse Vasopressin V1a Receptor Binding Assay Cells and Radioligand
The immortalized 1321N1 cell line (B9/1321N1 clone) constitutively and stably expressing Mouse vasopressin V1a receptor vasopressin (8-L-Arginine), [Phenylalanyl-3,4,5-^3H(N)] labelled compound (Perkin Elmer Life and Analytical Sciences) as radioligand were used to determine the affinity of the prepared compounds.
Membrane-preparation: Membrane preparation of immortalized 1321N1 cells expressing the propagated mouse Vasopressin V1a receptor was made according to Jarvis's method (Jarvis et al., J Pharmacol Exp Ther […], 310:407-16). Cells were suspended in preparative buffer (50 mM Tris, 1 mM EDTA, 0.1 mM PMSF) and homogenized with glass homogenizing potter. To separate the raw membrane fraction two consecutive centrifugation procedures (40,000 g for 25 minutes at 4° C.) were executed, then the membrane was taken into the preparatory buffer during a final washing step, it was divided into aliquots which were stored at −80° C. until the time of measurement.
The protein content of the prepared membrane was determined according to Lowry's method using standard dilution line of bovine serum albumin (BSA) (Lowry et al., J Biol Chem 1951, 193:265-75).
To determine the final affinity value, the results of at least two independent experiments were taken into account.
Non-specific binding values were determined in the presence of an unlabeled 1.2×10^−6 M (Arg^8)-vasopressin. Samples were incubated in a total volume of 0.33 ml for 60 minutes at 27° C. Membrane-bound and free ligands were separated by filtration through a 0.5% polyethyleneimine-impregnated UniFilter® GF/B™ After drying the filter plates, 40 μl Microscint-20 (Packard) scintillation cocktail was added to the samples. Finally, radioactivity was measured using MicroBeta^2 Microplate Counter (Perkin Elmer).
The radioligand clamping ability of a substance is determined in at least two independent experiments. Specific radioligand binding can be defined as the difference between total and non-specific binding in the presence of a saturation amount of the unlabeled ligand or different concentrations of the substance to be tested. The results are given as a percentage of inhibition of the specific binding achieved in the presence of the substance to be tested.
The IC50 data (i.e. the concentration of the unknown substance which displaces 50% of specific bound radioligand) is calculated from the concentration-displacement curve using the sigmoid fitting mathematical method y=(A1−A2)/(1+(x/x0)p)+A2 with Origin 7.5. software (OriginLab Corporation, Northampton, USA). During fitting, the asymptotes are not fixed. The Ki values (inhibition constant) are given with Cheng-Prusoff equation Ki=IC50/[1+(L/KD)] wherein [L] is the radioligand concentration used in the experiment and [KD] is the affinity of the radioactively labelled ligand for the given receptor. The KD is determined beforehand using the Scatchard curve.

Each structure is given as a SMILES string.

Sequence of mouse vasopressin V1a receptor (Q62463 whole entry): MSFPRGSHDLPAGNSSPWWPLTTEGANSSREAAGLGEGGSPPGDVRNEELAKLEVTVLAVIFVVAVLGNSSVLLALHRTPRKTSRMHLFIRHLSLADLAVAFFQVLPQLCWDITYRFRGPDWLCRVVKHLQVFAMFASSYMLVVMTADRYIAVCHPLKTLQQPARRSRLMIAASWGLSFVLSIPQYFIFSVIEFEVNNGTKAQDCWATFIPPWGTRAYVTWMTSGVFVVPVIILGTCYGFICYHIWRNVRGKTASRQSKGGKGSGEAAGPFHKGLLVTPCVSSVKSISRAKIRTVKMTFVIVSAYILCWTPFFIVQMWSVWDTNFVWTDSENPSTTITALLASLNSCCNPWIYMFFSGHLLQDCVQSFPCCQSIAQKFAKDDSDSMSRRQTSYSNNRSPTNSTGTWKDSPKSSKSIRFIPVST
T1 sequence (P37288 whole entry): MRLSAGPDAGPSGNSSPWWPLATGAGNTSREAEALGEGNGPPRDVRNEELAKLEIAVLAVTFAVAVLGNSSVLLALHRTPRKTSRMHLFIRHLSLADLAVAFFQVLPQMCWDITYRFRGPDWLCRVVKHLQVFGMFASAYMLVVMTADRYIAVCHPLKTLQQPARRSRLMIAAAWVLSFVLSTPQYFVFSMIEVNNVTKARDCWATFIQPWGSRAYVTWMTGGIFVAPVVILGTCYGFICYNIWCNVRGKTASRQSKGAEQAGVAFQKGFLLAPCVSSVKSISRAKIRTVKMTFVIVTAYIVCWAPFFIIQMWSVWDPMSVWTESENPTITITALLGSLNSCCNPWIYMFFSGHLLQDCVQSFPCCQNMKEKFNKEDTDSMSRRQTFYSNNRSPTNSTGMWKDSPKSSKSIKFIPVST

For the molecule `Brc1ccc2c(c1)CC1(Cc3nnc([C@H]4CC[C@H](Oc5ccccn5)CC4)n3-2)OCCO1` [Example 62, 8′-bromo-1′-[trans-4-(pyridin-2-yloxy)cyclohexyl]-4′H,6′H-spiro[1,3-dioxolane-2,5′ [1,2,4]triazolo[4,3-a][1]benzazepine]], the figures for the Ki in assay [1] and in assay [3] were 0.2 nM and 0.6 nM, respectively. In assay [2], the IC50 was 1.1 nM.
Turning to `CC(=O)NC1Cc2cc(Cl)ccc2-n2c(nnc2[C@H]2CC[C@H](Oc3ccccn3)CC2)C1` (stereo partly drawn) [Example 9, N-{8-chloro-1-[trans-4-(pyridin-2-yloxy)cyclohexyl]-5,6-dihydro-4H-[1,2,4]triazolo[4,3-a][1]benzazepin-5-yl}acetamide], the Ki was 0.8 nM in assay [1] and 31 nM in assay [3]. Moreover, the IC50 in assay [2] was found to be 3 nM.
On to `N[C@@H]1Cc2cc(Cl)ccc2-n2c(nnc2[C@H]2CC[C@H](Oc3ccccn3)CC2)C1` [Example 8, (5R)-8-chloro-1-[trans-4-(pyridin-2-yloxy)cyclohexyl]-5,6-dihydro-4H-[1,2,4]triazolo[4,3-a][1]benzazepine-5-amine], for which the figures for the Ki in assay [1] and in assay [3] were 1.3 nM and 161 nM, respectively. In assay [2], the IC50 came to 6.8 nM.
The like results for `c1ccc(O[C@H]2CC[C@H](c3nnc4n3-c3ccccc3CC3(C4)OCCO3)CC2)nc1` [Example 63, 1′-[trans-4-(pyridin-2-yloxy)cyclohexyl]-4′H,6′H-spiro[1,3-dioxolane-2,5′-[1,2,4]triazolo[4,3-a][1]benzazepine]] were, in that order, 0.3 nM, 13 nM and 1.4 nM.
As to `O[C@@H]1Cc2cc(Cl)ccc2-n2c(nnc2[C@H]2CC[C@H](Oc3ccccn3)CC2)C1` [Example 57, (5R)-8-chloro-1-[trans-4-(pyridin-2-yloxy)cyclohexyl]-5,6-dihydro-4H-[1,2,4]triazolo[4,3-a][1]benzazepin-5-ol], the Ki was 0.3 nM in assay [1] and 12 nM in assay [3]. Besides, in assay [2], the IC50 is 1.8 nM.
For the molecule `OC1Cc2cc(Cl)ccc2-n2c(nnc2[C@H]2CC[C@H](Oc3ccccn3)CC2)C1` (stereo partly drawn) [Example 55, 8-chloro-1-[trans-4-(pyridin-2-yloxy)cyclohexyl]-5,6-dihydro-4H-[1,2,4]triazolo[4,3-a][1]benzazepin-5-ol], the Ki in assay [1] is 0.3 nM; in assay [3], 21 nM. Also, in assay [2], the IC50 was 1.1 nM.
The like results for `O=C1Cc2cc(Cl)ccc2-n2c(nnc2[C@H]2CC[C@H](Oc3ccccn3)CC2)C1` [Example 54, 8-chloro-1-[trans-4-(pyrin-2-yloxy)cyclohexyl]-4H-[1,2,4]triazolo[4,3-a][1]benzazepin-5(6H)-one] were, in that order, 0.6 nM, 43 nM and 1.2 nM.

As a reminder, the Ki is a measure of affinity in units of concentration, obtained from inhibition or displacement. In general, IC50 refers to the concentration at which inhibition is half-maximal.
